Reference: US20100105904A1, “UREA TYPE CINNAMIDE DERIVATIVE” (priority 2006, published 2010)

These molecules were tested on Aβ42 production (assay: Quantification of Aβ peptide in neuronal culture from rat fetus brain (Aβ ELISA)). Settings: 72 h; rat primary neuronal culture (cerebral cortex, embryonic day 18 Wistar rats); medium collected three days after addition of compound; Aβx-42 ELISA; read-out: Aβ42 production reducing effect IC50.
Assay type: cell-based
Experimental: Quantification of Aβ Peptide in Neuronal Culture from Rat Fetus Brain
Primary neuronal cultures were prepared from the cerebral cortex of embryonic day 18 Wistar rats (Charles River Japan, Yokohama, Japan). Specifically, the embryos were aseptically removed from pregnant rats under ether anesthesia. The brain was isolated from the embryo and immersed in an ice-cold L-15 medium (such as Invitrogen Corp. Cat #11415-064, Carlsbad, Calif., USA, or SIGMA L1518). The cerebral cortex was collected from the isolated brain under a stereoscopic microscope. The cerebral cortex fragments collected were enzymatically treated in an enzyme solution containing 0.25% trypsin (Invitrogen Corp. Cat #15050-065, Carlsbad, Calif., USA) and 0.01% DNase (Sigma D5025, St. Louis, Mo., USA) at 37° C. for 30 minutes to disperse the cells. Here, the enzymatic reaction was stopped by adding inactivated horse serum to the solution. The enzymatically treated solution was centrifuged at 1,500 rpm for five minutes to remove the supernatant. 5 to 10 ml of a medium was added to the resulting cell mass. Neurobasal medium (Invitrogen Corp. Cat #21103-049, Carlsbad, Calif., USA) supplemented with 2% B27 supplement (Invitrogen Corp. Cat #17504-044, Carlsbad, Calif., USA), 25 μM 2-mercaptoethanol (2-ME, WAKO Cat #139-06861, Osaka, Japan), 0.5 mM L-glutamine (Invitrogen Corp. Cat #25030-081, Carlsbad, Calif., USA), and Antibiotics-Antimycotics (Invitrogen Corp. Cat #15240-062, Carlsbad, Calif., USA) was used as the medium (Neurobasal/B27/2-ME). However, the above Neurobasal medium not supplemented with 2-ME (Neurobasal/B27) was used for the assay. The cells were redispersed by mild pipetting of the cell mass to which the medium was added. The cell dispersion was filtered through a 40-μm nylon mesh (Cell Strainer, Cat #35-2340, Becton Dickinson Labware, Franklin Lakes, N.J., USA) to remove the remaining cell mass, and thus a neuronal cell suspension was obtained. The neuronal cell suspension was diluted with the medium and then plated in a volume of 100 μl/well at an initial cell density of 5×10^5 cells/cm^2 in a 96-well polystyrene culture plate pre-coated with poly-L or D-lysine (Falcon Cat #35-3075, Becton Dickinson Labware, Franklin Lakes, N.J., USA coated with poly-L-lysine using the method shown below, or BIOCOAT™ cell environments Poly-D-lysine cell ware 96-well plate, Cat #35-6461, Becton Dickinson Labware, Franklin Lakes, N.J., USA). Poly-L-lysine coating was carried out as follows. 100 μg/ml of a poly-L-lysine (SIGMA P2636, St. Louis, Mo., USA) solution was aseptically prepared with a 0.15 M borate buffer (pH 8.5). […] of the solution was added to the 96-well polystyrene culture plate and incubated at room temperature for one or more hours or at 4° C. overnight or longer. The coated 96-well polystyrene culture plate was washed with sterile water four or more times, and then dried or rinsed with, for example, sterile PBS or medium, and used for cell plating. The plated cells were cultured in the culture plate at 37° C. in 5% CO2-95% air for one day. Then, the total amount of the medium was replaced with a fresh Neurobasal™/B27/2-ME medium, and then the cells were cultured for further three days.
The drug was added to the culture plate on Day 4 of culture as follows. The total amount of the medium was removed from the wells, and 180 μl/well of Neurobasal medium not containing 2-ME and containing 2% B-27 (Neurobasal/B27) was added thereto. A solution of the test compound in dimethyl sulfoxide (hereinafter abbreviated as DMSO) was diluted with Neurobasal/B27 to a concentration 10-fold higher than the final concentration. 20 μl/well of the dilution was added to and sufficiently mixed with the medium. The final DMSO concentration was 1% or less. Only DMSO was added to the control group.
The cells were cultured for three days after addition of the compound, and the total amount of the medium was collected. The resulting medium was used as an ELISA sample. […]
Molecule COc1cc(NC(=O)NCCCc2ccc(C3CCCCC3)cc2)ccc1-n1cnc(C)c1 [Example 26, 1-[3-(4-cyclohexyl-phenyl)propyl]-3-[3-methoxy-4-(4-methyl-1H-imidazol-1-yl)phenyl]urea monotrifluoroacetate] has an IC50 of 230 nM. Work on COc1cc(NC(=O)NC[C@H](O)c2ccccc2)ccc1-n1cnc(C)c1 [Example 29, 1-(R)-2-hydroxy-2-phenylethyl-3-[3-methoxy-4-(4-methyl-1H-imidazol-1-yl)phenyl]urea] yielded an IC50 of 3840 nM. For COc1cc(NC(=O)NC(Cc2ccccc2)c2ccccc2)ccc1-n1cnc(C)c1 (centres unmarked) [Example 17, 1-(1,2-diphenyl-ethyl)-[3-methoxy-4-(4-methyl-1H-imidazol-1-yl)phenyl]urea monotrifluoroacetate], the IC50 was 560 nM. For COc1cc(NC(=O)NCC(C)(C)c2ccccc2)ccc1-n1cnc(C)c1 [Example 27, 1-[3-methoxy-4-(4-methyl-1H-imidazol-1-yl)phenyl]-3-(2-methyl-2-phenylpropyl)urea monotrifluoroacetate], the IC50 was 540 nM. COc1cc(NC(=O)N[C@@H](CO)Cc2ccccc2)ccc1-n1cnc(C)c1 [Example 23, 1-((R)-1-hydroxymethyl-2-phenylethyl)-3-[3-methoxy-4-(4-methyl-1H-imidazol-1-yl)phenyl]urea] gave an IC50 of 1050 nM. For COc1cc(NC(=O)NCc2cc(F)c(F)c(F)c2)ccc1-n1cnc(C)c1 [Example 19, 1-[3-methoxy-4-(4-methyl-1H-imidazol-1-yl)phenyl]-3-(3,4,5-trifluorobenzyl)urea monotrifluoroacetate], the IC50 was 2070 nM. COc1cc(NC(=O)NCCc2ccc(Cl)c(Cl)c2)ccc1-n1cnc(C)c1 [Example 11, 1-[2-(3,4-dichlorophenyl)ethyl]-3-[3-methoxy-4-(4-methyl-1H-imidazol-1-yl)phenyl]urea] was tested, and the IC50 was 970 nM. COc1cc(NC(=O)NCc2ccc(Cl)c(Cl)c2)ccc1-n1cnc(C)c1 [Example 8, 1-(3,4-dichlorobenzyl)-3-[3-methoxy-4-(4-methyl-1H-imidazol-1-yl)phenyl]urea] was tested, and the IC50 was 1710 nM. For COc1cc(NC(=O)N2CCCCC2CCc2ccccc2F)ccc1-n1cnc(C)c1 (centres unmarked) [Example 16, 2-[2-(2-fluorophenyl)ethyl]piperidine-1-carboxylic acid [3-methoxy-4-(4-methyl-1H-imidazol-1-yl)phenyl]amide monotrifluoroacetate], the IC50 was 1420 nM. COc1cc(NC(=O)NCC2c3ccccc3-c3ccccc32)ccc1-n1ccnc1 [Example 6, 1-(9H-fluoren-9-ylmethyl)-3-[4-(1H-imidazol-1-yl)-3-methoxyphenyl]urea] gave an IC50 of 5200 nM. For COc1cc(NC(=O)NCC2(c3ccccc3)Cc3ccccc3C2)ccc1-n1cnc(C)c1 [Example 15, 1-[3-methoxy-4-(4-methyl-1H-imidazol-1-yl)phenyl]-3-(2-phenyl-indan-2-ylmethyl)urea monotrifluoroacetate], the IC50 was 160 nM. In the case of COc1cc(NC(=O)N[C@@H](C)c2ccc(F)cc2)ccc1-n1cnc(C)c1 [Example 10, 1-[(S)-1-(4-fluorophenyl)ethyl]-3-[3-methoxy-4-(4-methyl-1H-imidazol-1-yl)phenyl]urea], the IC50 is reported as 1220 nM. For COc1cc(NC(=O)NCCC(c2ccccc2)c2ccccc2)ccc1-n1cnc(C)c1 [Example 24, 1-(3,3-diphenylpropyl)-3-[3-methoxy-4-(4-methyl-1H-imidazol-1-yl)phenyl]urea monotrifluoroacetate], the IC50 was 220 nM. In the case of COc1cc(NC(=O)N2CCC(c3ccccc3)CC2)ccc1-n1cnc(C)c1 [Example 20, 4-phenyl-piperidine-1-carboxylic acid [3-methoxy-4-(4-methyl-1H-imidazo1-1-yl)phenyl]amide monotrifluoroacetate], the IC50 is reported as 1610 nM. With COc1cc(NC(=O)NCCCc2ccccc2)ccc1-n1cnc(C)c1 [Example 18, 1-[3-methoxy-4-(4-methyl-1H-imidazol-1-yl)phenyl]-3-(3-phenylpropyl)urea monotrifluoroacetate] the IC50 was 860 nM. COc1cc(NC(=O)N2CCCC(c3ccccc3)C2)ccc1-n1cnc(C)c1 (centres unmarked) [Example 21, 3-phenyl-piperidine-1-carboxylic acid [3-methoxy-4-(4-methyl-1H-imidazol-1-yl)phenyl]amide monotrifluoroacetate] gave an IC50 of 1660 nM. Molecule COc1cc(NC(=O)NCC(c2ccccc2)c2ccccc2)ccc1-n1cnc(C)c1 [Example 25, 1-(2,2-diphenylethyl)-3-[3-methoxy-4-(4-methyl-1H-imidazol-1-yl)phenyl]urea monotrifluoroacetate] has an IC50 of 190 nM.
